Where a name gives a salt, the structure may show the parent alone.
Experiments:
CRTH2 = biological target: T1, CRTH2 (Homo sapiens, UniProt Q9Y5Y4); assay: CRTH2 antagonistic activity (statement only, no method given)
T1 sequence (Q9Y5Y4 1-395): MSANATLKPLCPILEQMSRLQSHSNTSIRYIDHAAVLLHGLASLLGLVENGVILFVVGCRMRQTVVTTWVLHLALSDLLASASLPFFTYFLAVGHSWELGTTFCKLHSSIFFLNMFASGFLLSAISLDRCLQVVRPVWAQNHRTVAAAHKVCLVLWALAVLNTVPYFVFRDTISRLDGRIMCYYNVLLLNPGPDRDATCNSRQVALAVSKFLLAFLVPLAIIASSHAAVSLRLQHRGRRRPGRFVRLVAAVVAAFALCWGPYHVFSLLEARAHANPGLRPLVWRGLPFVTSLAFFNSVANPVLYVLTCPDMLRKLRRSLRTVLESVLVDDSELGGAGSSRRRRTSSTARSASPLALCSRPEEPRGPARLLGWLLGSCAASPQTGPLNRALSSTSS

[1] = Dynamic vapor sorption/desorption (DVS); format: physicochemical; conditions: up to 75% relative humidity at 25° C.
Experimental: Vapor sorption/desorption was carried out using Surface Measurement Systems DVS-HT. Samples were placed into a foil insert placed on a sample pan. […] The equilibrium point of each step was reached when 0.002% of weight change was reached.

[2] = Particle size distribution (Sympatec HELOS, dry powder dispersion); format: physicochemical; set-up: particle size D90: dose or concentration left out as unconfirmed; conditions: for Particle size distribution (PSD) % <10 μM / Particle size distribution (PSD) % <50 μM / particle size D90: crystalline product as isolated, no milling; for particle size D90: the values are: particle size D90
Experimental: Determination of particle size distribution was carried out using a Sympatec HELOS System H1588 with a RODOS/M Dry Powder Dispersion System.

## CN(C)c1nc(Cc2ccc(NC(=O)c3ccc(C(F)(F)F)cc3)cc2)nc(N(C)C)c1CC(=O)O [choline salt of [4,6-bis(dimethylamino)-2-(4-{[4-(trifluoromethyl)benzoyl]amino}benzyl)pyrimidin-5-yl]acetic acid]
CRTH2
  CRTH2 antagonistic activity: excellent
[1]
  hygroscopicity (DVS isotherm, FIG. 3): non-hygroscopic
[2]; listed as Comp. Ex. 2
  Particle size distribution (PSD) % <10 μM: 11.57
  Particle size distribution (PSD) % <50 μM: 60.13
  particle size D90: 120 µm
[2]; listed as Comp. Ex. 3
  Particle size distribution (PSD) % <10 μM: 6.87
  Particle size distribution (PSD) % <50 μM: 57.62
  particle size D90: 181 µm
[2]; listed as Comp. Ex. 4
  Particle size distribution (PSD) % <10 μM: 3.01
  Particle size distribution (PSD) % <50 μM: 13.62
  particle size D90: 38 µm
[2]; listed as Ex. 1
  Particle size distribution (PSD) % <10 μM: 5.13
  Particle size distribution (PSD) % <50 μM: 16.67
  particle size D90: 35.5 µm
[2]; seeding step with seeding particles of which 90% have a diameter of less than 50 μm
  diameter of 90% of the choline salt particles: less than 100 μm

From patent US20110294828A1, “PROCESS FOR PREPARING A POLYMORPH OF THE CHOLINE SALT OF A PYRIMIDIN-5-YL ACETIC ACID DERIVATIVE” (BOEHRINGER INGELHEIM INTERNATIONAL GMBH, priority 2009, published 2011)
